Consider 16 compounds from ChEMBL document CHEMBL3991601, “The target landscape of clinical kinase drugs” (Science, 2017).

Structures can show the parent of a compound that is named as a salt. Active and inactive are the calls of the source. Cut-off read from the data, not from the text of the source, for most assays here: actives have a measured Kd and inactives only a lower limit.

Assay [1] has as its target T1, Peroxisomal acyl-coenzyme A oxidase 3 (Homo sapiens, UniProt O15254).
T1 sequence (O15254 whole entry): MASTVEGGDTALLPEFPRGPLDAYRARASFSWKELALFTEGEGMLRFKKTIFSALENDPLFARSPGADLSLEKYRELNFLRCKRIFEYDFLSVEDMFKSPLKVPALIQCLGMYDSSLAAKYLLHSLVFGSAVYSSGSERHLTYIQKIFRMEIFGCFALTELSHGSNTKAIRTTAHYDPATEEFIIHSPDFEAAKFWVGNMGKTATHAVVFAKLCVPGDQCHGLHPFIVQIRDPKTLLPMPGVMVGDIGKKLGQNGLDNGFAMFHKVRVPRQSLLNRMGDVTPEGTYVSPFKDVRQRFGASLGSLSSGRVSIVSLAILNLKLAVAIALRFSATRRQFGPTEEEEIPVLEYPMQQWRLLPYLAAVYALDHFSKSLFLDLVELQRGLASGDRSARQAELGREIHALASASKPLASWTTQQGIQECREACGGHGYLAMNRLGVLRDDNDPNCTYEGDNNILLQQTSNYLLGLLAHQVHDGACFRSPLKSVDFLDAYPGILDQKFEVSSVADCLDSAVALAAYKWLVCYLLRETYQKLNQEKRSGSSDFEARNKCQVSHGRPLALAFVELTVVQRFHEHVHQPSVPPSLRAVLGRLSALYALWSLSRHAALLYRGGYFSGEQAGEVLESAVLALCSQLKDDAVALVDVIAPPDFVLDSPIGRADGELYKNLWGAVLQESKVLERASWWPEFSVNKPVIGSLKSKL

Assay [2] concerns the target T2, Ephrin type-B receptor 4 (Homo sapiens, UniProt P54760).
T2 sequence (P54760 whole entry): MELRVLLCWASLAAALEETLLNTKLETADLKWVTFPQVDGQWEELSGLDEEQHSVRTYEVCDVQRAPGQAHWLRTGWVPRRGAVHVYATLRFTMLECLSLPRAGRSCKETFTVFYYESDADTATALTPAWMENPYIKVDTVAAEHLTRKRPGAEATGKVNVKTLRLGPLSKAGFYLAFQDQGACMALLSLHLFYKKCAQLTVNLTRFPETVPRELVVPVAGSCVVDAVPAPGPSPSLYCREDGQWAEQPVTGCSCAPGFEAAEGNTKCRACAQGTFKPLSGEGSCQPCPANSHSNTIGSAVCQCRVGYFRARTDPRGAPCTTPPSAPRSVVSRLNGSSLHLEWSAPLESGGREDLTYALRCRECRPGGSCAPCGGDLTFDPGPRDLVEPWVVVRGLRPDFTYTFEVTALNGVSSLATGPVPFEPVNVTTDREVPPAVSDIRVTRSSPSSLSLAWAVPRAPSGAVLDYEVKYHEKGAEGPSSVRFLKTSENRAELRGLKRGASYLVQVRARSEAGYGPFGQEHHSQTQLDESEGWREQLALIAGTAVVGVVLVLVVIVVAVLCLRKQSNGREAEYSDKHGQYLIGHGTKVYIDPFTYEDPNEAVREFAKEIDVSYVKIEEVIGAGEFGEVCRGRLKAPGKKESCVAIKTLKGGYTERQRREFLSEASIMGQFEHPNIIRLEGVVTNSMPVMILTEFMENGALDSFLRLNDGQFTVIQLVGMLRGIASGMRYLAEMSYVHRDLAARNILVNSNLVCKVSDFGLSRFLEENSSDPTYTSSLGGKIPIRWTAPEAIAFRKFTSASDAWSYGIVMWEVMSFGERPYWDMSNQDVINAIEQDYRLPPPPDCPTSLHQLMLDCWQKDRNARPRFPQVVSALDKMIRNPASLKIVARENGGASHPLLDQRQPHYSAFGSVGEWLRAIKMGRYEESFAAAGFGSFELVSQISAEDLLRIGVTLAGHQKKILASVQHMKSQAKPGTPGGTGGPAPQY

The target of assay [3] is GTP-binding protein 4 (Homo sapiens, UniProt Q9BZE4).
The target in assay [4] is Mitogen-activated protein kinase 1 (Homo sapiens, UniProt P28482).
Assay [5] has as its target Rho-associated protein kinase 2 (Homo sapiens, UniProt O75116).
The target of assay [6] is Serine/threonine-protein kinase 10 (Homo sapiens, UniProt O94804).
For assay [7], the target named is T3, Serine/threonine-protein kinase 4 (Homo sapiens, UniProt Q13043).
T3 sequence (Q13043 whole entry): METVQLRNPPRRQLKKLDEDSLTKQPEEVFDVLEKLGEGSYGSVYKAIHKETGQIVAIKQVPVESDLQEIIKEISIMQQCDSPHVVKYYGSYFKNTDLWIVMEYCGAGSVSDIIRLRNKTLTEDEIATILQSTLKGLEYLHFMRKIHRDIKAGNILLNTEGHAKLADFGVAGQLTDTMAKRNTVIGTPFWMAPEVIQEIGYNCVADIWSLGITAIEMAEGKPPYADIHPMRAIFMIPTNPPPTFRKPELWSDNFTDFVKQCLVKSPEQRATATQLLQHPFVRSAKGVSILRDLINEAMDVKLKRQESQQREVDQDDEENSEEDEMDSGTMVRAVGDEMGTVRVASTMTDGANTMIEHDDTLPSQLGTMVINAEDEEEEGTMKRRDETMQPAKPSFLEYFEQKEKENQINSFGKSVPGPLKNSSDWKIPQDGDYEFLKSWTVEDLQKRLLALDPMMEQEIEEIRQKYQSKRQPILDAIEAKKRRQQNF
Note: in the data inactive means no Kd found up to 30 µM.

Mitogen-activated protein kinase 1, sequence (P28482 whole entry): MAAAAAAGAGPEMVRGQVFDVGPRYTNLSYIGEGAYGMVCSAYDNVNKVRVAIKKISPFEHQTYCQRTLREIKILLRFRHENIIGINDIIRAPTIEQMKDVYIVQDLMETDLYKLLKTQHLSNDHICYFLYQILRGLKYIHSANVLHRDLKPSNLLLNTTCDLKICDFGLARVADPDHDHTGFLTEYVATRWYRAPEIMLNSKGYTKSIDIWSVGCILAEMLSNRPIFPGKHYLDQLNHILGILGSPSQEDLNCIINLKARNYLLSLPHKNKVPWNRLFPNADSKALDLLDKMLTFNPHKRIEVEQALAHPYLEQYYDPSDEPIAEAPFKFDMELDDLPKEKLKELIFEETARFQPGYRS
Rho-associated protein kinase 2, sequence (O75116 whole entry): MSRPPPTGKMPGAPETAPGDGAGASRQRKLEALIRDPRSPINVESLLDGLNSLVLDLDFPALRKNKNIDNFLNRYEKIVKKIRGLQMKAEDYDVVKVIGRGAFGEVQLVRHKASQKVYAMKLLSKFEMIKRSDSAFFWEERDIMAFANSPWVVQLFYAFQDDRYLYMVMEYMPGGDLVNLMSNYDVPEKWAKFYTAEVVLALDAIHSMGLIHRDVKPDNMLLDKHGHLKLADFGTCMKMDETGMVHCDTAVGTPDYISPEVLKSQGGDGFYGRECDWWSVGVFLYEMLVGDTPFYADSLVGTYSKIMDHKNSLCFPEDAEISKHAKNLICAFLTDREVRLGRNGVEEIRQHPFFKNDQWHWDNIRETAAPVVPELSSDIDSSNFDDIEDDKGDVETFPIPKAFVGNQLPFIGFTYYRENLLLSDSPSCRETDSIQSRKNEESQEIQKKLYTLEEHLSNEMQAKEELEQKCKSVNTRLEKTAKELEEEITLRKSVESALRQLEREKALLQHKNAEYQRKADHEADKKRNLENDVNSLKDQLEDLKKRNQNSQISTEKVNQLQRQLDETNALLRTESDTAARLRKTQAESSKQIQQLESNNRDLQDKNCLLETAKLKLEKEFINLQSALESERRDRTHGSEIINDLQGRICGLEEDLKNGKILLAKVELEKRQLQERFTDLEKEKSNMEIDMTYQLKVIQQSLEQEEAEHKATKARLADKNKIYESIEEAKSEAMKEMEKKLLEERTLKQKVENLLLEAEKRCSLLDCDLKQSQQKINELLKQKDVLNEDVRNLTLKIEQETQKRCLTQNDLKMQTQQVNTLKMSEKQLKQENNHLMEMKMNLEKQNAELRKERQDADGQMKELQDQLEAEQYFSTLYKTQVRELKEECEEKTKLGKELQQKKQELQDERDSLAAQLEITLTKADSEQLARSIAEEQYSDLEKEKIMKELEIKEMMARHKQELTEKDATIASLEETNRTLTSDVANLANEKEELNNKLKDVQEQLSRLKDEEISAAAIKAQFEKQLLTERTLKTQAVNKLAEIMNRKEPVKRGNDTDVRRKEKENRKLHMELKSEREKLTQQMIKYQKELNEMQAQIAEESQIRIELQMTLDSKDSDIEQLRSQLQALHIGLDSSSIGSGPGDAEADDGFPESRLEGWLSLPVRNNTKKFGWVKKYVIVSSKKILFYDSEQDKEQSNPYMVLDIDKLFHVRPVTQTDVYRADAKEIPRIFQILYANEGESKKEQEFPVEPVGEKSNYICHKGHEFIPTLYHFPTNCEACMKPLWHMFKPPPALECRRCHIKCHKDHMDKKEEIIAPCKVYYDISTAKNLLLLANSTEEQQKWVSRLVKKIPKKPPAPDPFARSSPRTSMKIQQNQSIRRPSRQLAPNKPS
Serine/threonine-protein kinase 10, sequence (O94804 whole entry): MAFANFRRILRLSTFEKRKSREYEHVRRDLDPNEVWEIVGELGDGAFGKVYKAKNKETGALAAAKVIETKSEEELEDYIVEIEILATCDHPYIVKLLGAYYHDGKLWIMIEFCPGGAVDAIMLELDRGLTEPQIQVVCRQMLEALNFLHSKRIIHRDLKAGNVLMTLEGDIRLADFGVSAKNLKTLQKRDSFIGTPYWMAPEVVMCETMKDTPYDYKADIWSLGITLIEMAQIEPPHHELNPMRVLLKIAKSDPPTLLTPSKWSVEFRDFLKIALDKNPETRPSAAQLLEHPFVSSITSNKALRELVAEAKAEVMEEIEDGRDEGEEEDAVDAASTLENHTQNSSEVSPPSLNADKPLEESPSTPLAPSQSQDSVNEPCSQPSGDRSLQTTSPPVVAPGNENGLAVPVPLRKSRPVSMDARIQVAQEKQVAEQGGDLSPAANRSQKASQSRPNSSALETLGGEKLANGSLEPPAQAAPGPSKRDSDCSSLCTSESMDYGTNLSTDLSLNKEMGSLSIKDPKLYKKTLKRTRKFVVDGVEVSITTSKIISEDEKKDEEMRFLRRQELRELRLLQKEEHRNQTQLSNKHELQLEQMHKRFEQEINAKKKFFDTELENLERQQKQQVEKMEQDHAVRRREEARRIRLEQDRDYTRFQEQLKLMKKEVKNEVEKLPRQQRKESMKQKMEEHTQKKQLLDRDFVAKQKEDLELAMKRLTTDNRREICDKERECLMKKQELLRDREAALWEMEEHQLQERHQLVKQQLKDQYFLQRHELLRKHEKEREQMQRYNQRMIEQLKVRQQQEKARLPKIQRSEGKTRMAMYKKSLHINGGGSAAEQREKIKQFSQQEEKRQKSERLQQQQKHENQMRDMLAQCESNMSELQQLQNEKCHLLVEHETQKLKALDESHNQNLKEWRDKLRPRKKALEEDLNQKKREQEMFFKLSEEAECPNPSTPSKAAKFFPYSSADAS

As for `Cc1cc(C(=O)NOCCO)c(Nc2ccc(I)cc2F)n(C)c1=O` [AZD-8330], the Kd in assay [1], in assay [2], in assay [3], in assay [4], in assay [5] and in assay [6] was > 30 µM (inactive) in each case. Besides, in assay [7], the Kd is > 30 µM (inactive).
`Cn1cnc2c(F)c(Nc3ccc(Br)cc3F)c(C(=O)NOCCO)cc21` [BINIMETINIB]: the Kd in assay [1], in assay [2], in assay [3], in assay [4], in assay [5] and in assay [6] was > 30 µM (inactive) in each case. In addition, the Kd in assay [7] is > 30 µM (inactive).
For the compound `CCn1c(C(=O)N(C2CC2)C2CC2)cc2c3c(ncn3C)c(Nc3cc(C)n(C)n3)nc21` [BMS-911543], the Kd in assay [1], in assay [2], in assay [3], in assay [4], in assay [5] and in assay [6] was > 30 µM (inactive) in each case. Besides, the Kd in assay [7] was > 30 µM (inactive).
Consider `COc1cc2ncnc(Oc3cccc(NC(=O)Nc4cc(C(C)(C)C(F)(F)F)on4)c3)c2cc1OC` [CEP-32496], for which the Kd was > 30 µM (inactive) in assay [1]; 9.82 µM (active) in assay [2]; > 30 µM (inactive) in assay [3]; > 30 µM (inactive) in assay [4]; > 30 µM (inactive) in assay [5]; > 30 µM (inactive) in assay [6]. The Kd in assay [7] was > 30 µM (inactive).
As for `Cc1cc(Nc2ncc(Cl)c(Nc3ccccc3S(=O)(=O)C(C)C)n2)c(OC(C)C)cc1C1CCNCC1` [CERITINIB], the Kd in assay [1], in assay [2], in assay [3], in assay [4], in assay [5] and in assay [6] was > 30 µM (inactive) in each case. Besides, the Kd in assay [7] is > 30 µM (inactive).
Regarding `COc1c(OCCCN2CCOCC2)ccc2c1N=C(NC(=O)c1cnc(N)nc1)N1CCN=C21` [COPANLISIB], the Kd in assay [1], in assay [2], in assay [3], in assay [4], in assay [5] and in assay [6] was > 30 µM (inactive) in each case. In addition, the Kd in assay [7] is > 30 µM (inactive).
For `COCC(=O)NC/C=C/c1ccc2ncnc(Nc3ccc(Oc4ccc(C)nc4)c(C)c3)c2c1` [CP-724714], the Kd in assay [1], in assay [2], in assay [3], in assay [4], in assay [5] and in assay [6] was > 30 µM (inactive) each time. Further, in assay [7], the Kd was > 30 µM (inactive).
Regarding `C#Cc1cccc(Nc2ncnc3cc(OC)c(OCCCCCCC(=O)NO)cc23)c1` [CUDC-101], the Kd in assay [1] was > 30 µM (inactive); in assay [2], > 30 µM (inactive); in assay [3], > 30 µM (inactive); in assay [4], > 30 µM (inactive); in assay [5], > 30 µM (inactive); in assay [6], 57.5 µM (active). In assay [7], the Kd is > 30 µM (inactive).
Turning to `CCS(=O)(=O)N1CCN(c2ccc(Nc3ncc(C(N)=O)c(NC4CC4)n3)cc2)CC1` [Cerdulatinib Hydrochloride], the Kd in assay [1], in assay [2], in assay [3], in assay [4], in assay [5] and in assay [6] was > 30 µM (inactive) throughout. Further, in assay [7], the Kd is 0.102 µM (active).
Turning to `Cc1nc2cc(-n3ncc(C(=O)c4cc5ccccc5[nH]4)c3N)ccc2[nH]1` [FGFR INHIBITOR DEBIO 1347], the Kd in assay [1], in assay [2], in assay [3], in assay [4], in assay [5] and in assay [6] was > 30 µM (inactive) throughout. In assay [7], the Kd is > 30 µM (inactive).
For the compound `O=C(Nc1nc2cccc(-c3ccc(CN4CCS(=O)(=O)CC4)cc3)n2n1)C1CC1` [FILGOTINIB], the Kd in assay [1] was > 30 µM (inactive); in assay [2], > 30 µM (inactive); in assay [3], > 30 µM (inactive); in assay [4], > 30 µM (inactive); in assay [5], > 30 µM (inactive); in assay [6] it was 1.91 µM (active). The Kd in assay [7] is > 30 µM (inactive).
For the compound `Cc1cccc(-c2nn3c(c2-c2ccnc4ccc(C(N)=O)cc24)CCC3)n1` [GALUNISERTIB], the Kd in assay [1], in assay [2], in assay [3], in assay [4], in assay [5] and in assay [6] was > 30 µM (inactive) throughout. In addition, the Kd in assay [7] is > 30 µM (inactive).
As to `CCn1cc(-c2ccnc3[nH]c(-c4cccc(CN(C)C)c4)cc23)c(-c2ccc(NC(=O)N(C)C)cc2)n1` [GSK-1070916], the Kd in assay [1] was > 30 µM (inactive); in assay [2], > 30 µM (inactive); in assay [3], > 30 µM (inactive); in assay [4], > 30 µM (inactive); in assay [5], 2.4 µM (active); in assay [6], > 30 µM (inactive). The Kd in assay [7] was > 30 µM (inactive).
`COc1ccc(S(=O)(=O)N(C(C)=O)c2ccccc2/C=C/c2cc[n+]([O-])cc2)cc1` [HMN-214]: the Kd in assay [1], in assay [2], in assay [3], in assay [4], in assay [5] and in assay [6] was > 30 µM (inactive) each time. Further, the Kd in assay [7] is > 30 µM (inactive).
With `CNC(=O)c1cccc2cc(Oc3ccnc4cc(OCC5(N)CC5)c(OC)cc34)ccc12` [LUCITANIB], the Kd in assay [1], in assay [2], in assay [3], in assay [4], in assay [5] and in assay [6] was > 30 µM (inactive) throughout. In assay [7], the Kd was > 30 µM (inactive).
As to `NC1(c2ccc(-c3nc4ccn5c(=O)[nH]nc5c4cc3-c3ccccc3)cc2)CCC1` [MK-2206], the Kd in assay [1], in assay [2], in assay [3], in assay [4], in assay [5] and in assay [6] was > 30 µM (inactive) throughout. Further, the Kd in assay [7] is > 30 µM (inactive).
